Results as given in patent US8637510B2, “Morpholinothiazoles as alpha 7 positive allosteric modulators” (Janssen Pharmaceutica NV, priority 2009, dated 2014).

Target: T1, human alpha 7-wt nAChR (Homo sapiens, UniProt P36544)
T1 construct: expressed in transfected cells
Experiment: Ca2+ flux imaging (FDSS) (Protocol B)
Type: cell-based
Details: for EC50: potentiation of 100 μM choline, compounds 0.01 μM to 30 μM, read-out: a7-PAM-G_[33]_pEC50 pEC50 (converted); for Emax: efficacy of 100 μM choline defined as 100% in the absence of a PAM, read-out: a7-PAM-G_[33]_Eff_Curve_FI % Efficacy
Experimental: Ca^2+ Flux Imaging (FDSS) (Protocol B)
• Hanks buffered saline solution (HBSS, Invitrogen, Belgium), supplemented with 10 mM HEPES (Invitrogen, Belgium), CaCl2 to a final concentration of 5 mM, 0.1% Bovine serum albumin (Sigma-Aldrich NV, Belgium). b) Calcium-Sensitive Dye—Fluo-4AM • Fluo-4AM (Molecular Probes, USA) was dissolved in DMSO containing 10% Pluronic acid (Molecular Probes, USA) to give a stock solution which was diluted in assay buffer supplemented with 5 mM probenicid (Sigma, Aldrich NV, Belgium) to give a final concentration of 2 μM. c) 384-Well Plates • Black-sided, transparent bottomed 384 well plates coated with poly-D-lysine, PDL pre-coated (Corning, Incorporated, USA) d) Calcium Flux Measurement • A Functional drug screening system (FDSS, Hamamatsu) was used to measure intracellular free-calcium flux signals. Method
Monolayers of human alpha 7-wt nAChR-expressing cells were grown in black-sided, transparent bottomed 384 well plates coated with PDL for 24 hours prior to loading with a fluorescent calcium indicator, fluo-4AM for up to 120 minutes.
PAM activity was detected in real time by applying the compounds to be tested to the loaded cells along with an alpha 7 nicotinic receptor agonist during constant monitoring of cellular fluorescence in a FDSS. Compounds giving peak fluorescent responses greater than the response due to agonist alone, were considered to be alpha 7 nAChR PAMs. The alpha 7 nicotinic receptor agonist was choline, applied at a sub-maximal concentration of 100 μM. In a further setting of the present invention the compounds were applied prior to the alpha 7 nicotinic receptor agonist, in a particular 10 minutes prior to the agonist.
A control response to choline was calculated on each plate from the difference in peak in fluorescence in wells receiving either choline or assay buffer alone. Compounds of the present invention were tested at a concentration range from 0.01 μM to 30 μM. Compounds were considered to have an interesting activity when they potentiated the choline signal at least with 200% when tested at a concentration of 30 μM (the efficacy of 100 μM choline was defined as 100% in the absence of a PAM). An EC50 (or pEC50) was determined as a concentration relating to half the maximal effect, when a clear sigmoidal curve with top plateau was obtained.

T1 sequence (P36544 23-502): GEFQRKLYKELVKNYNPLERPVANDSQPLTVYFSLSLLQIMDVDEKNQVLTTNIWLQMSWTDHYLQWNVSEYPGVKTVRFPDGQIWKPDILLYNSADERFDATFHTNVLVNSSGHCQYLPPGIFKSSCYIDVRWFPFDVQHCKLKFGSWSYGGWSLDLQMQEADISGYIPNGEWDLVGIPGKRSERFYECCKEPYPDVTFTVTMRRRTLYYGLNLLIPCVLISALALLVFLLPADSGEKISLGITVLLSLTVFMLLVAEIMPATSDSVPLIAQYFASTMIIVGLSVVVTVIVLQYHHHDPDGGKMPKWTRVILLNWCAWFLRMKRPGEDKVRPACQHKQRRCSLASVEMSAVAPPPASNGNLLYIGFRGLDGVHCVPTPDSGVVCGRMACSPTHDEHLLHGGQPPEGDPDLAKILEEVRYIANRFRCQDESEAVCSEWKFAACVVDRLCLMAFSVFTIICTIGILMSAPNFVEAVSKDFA

EC50 [nM]	Emax [%]	Compound
794		Cc1cc(-c2sc(N3CC(C)OC(C)C3)nc2CNC(=O)CC2CC2)cc(C)n1 (racemic) [Compound 55, N-[[2-[2,6-dimethyl-4-morpholinyl]-5-(2,6-dimethyl-4-pyridinyl)-4-thiazolyl]methyl]-cyclopropaneacetamide]
234		Cc1cc(-c2sc(N3CC(C)OC(C)C3)nc2CNC(=O)c2ccc(F)cc2C)cc(C)n1 (racemic) [Compound 56, N-[[2-[2,6-dimethyl-4-morpholinyl]-5-(2,6-dimethyl-4-pyridinyl)-4-thiazolyl]methyl]-4-fluoro-2-methyl-benzamide]
692	783	Cc1cc(-c2sc(N3CC(C)OC(C)C3)nc2CNC(=O)C2CCC2)cc(C)n1 (racemic) [Compound 57, N-[[2-[2,6-dimethyl-4-morpholinyl]-5-(2,6-dimethyl-4-pyridinyl)-4-thiazolyl]methyl]-cyclobutanecarboxamide]
977		CCCC(=O)NCc1nc(N2CC(C)OC(C)C2)sc1-c1cc(C)nc(C)c1 (racemic) [Compound 61, N-[[2-[2,6-dimethyl-4-morpholinyl]-5-(2,6-dimethyl-4-pyridinyl)-4-thiazolyl]methyl]-butanamide]
912		Cc1cc(-c2sc(N3CC(C)OC(C)C3)nc2CNC(=O)c2conc2C)cc(C)n1 (racemic) [Compound 68, N-[[2-[2,6-dimethyl-4-morpholinyl]-5-(2,6-dimethyl-4-pyridinyl)-4-thiazolyl]methyl]-3-methyl-4-isoxazolecarboxamide]
	313	Cc1cc(-c2sc(N3C[C@@H](C)O[C@@H](C)C3)nc2CNC(=O)c2ccccc2F)cc(C)n1 [Compound 6, N-[[2-[(2R,6S)-2,6-dimethyl-4-morpholinyl]-5-(2,6-dimethyl-4-pyridinyl)-4-thiazolyl]methyl]-2-fluoro-benzamide]
22.4	651	Cc1cc(-c2sc(N3C[C@@H](C)O[C@@H](C)C3)nc2CNC(=O)C2CCCC2)cc(C)n1 [Compound 16, N-[[2-[(2R,6S)-2,6-dimethyl-4-morpholinyl]-5-(2,6-dimethyl-4-pyridinyl)-4-thiazolyl]methyl]-cyclopentanecarboxamide]
1740	253	Cc1cc(-c2sc(N3C[C@@H](C)O[C@@H](C)C3)nc2CNC(=O)c2nc(C)oc2C(F)(F)F)cc(C)n1 [Compound 20, N-[[2-[(2R,6S)-2,6-dimethyl-4-morpholinyl]-5-(2,6-dimethyl-4-pyridinyl)-4-thiazolyl]methyl]-2-methyl-5-(trifluoromethyl)-4-oxazolecarboxamide]
72.4	572	Cc1ccc(C(=O)NCc2nc(N3C[C@@H](C)O[C@@H](C)C3)sc2-c2cc(C)nc(C)c2)c(C)c1 [Compound 21, N-[[2-[(2R,6S)-2,6-dimethyl-4-morpholinyl]-5-(2,6-dimethyl-4-pyridinyl)-4-thiazolyl]methyl]-2,4-dimethyl-benzamide]
20	484	Cc1cc(-c2sc(N3C[C@@H](C)O[C@@H](C)C3)nc2CNC(=O)c2ccc(Cl)cc2C)cc(C)n1 [Compound 22, 4-chloro-N-[[2-[(2R,6S)-2,6-dimethyl-4-morpholinyl]-5-(2,6-dimethyl-4-pyridinyl)-4-thiazolyl]methyl]-2-methyl-benzamide]
141	631	Cc1cc(-c2sc(N3C[C@@H](C)O[C@@H](C)C3)nc2CNC(=O)c2cccc(Cl)c2Cl)cc(C)n1 [Compound 26, 2,3-dichloro-N-[[2-[(2R,6S)-2,6-dimethyl-4-morpholinyl]-5-(2,6-dimethyl-4-pyridinyl)-4-thiazolyl]methyl]-benzamide]
525	403	Cc1cc(-c2sc(N3C[C@@H](C)O[C@@H](C)C3)nc2CNC(=O)c2ccccc2)cc(C)n1 [Compound 27, N-[[2-[(2R,6S)-2,6-dimethyl-4-morpholinyl]-5-(2,6-dimethyl-4-pyridinyl)-4-thiazolyl]methyl]-benzamide]
447	409	Cc1cc(-c2sc(N3C[C@@H](C)O[C@@H](C)C3)nc2CNC(=O)[C@H]2CCOC2)cc(C)n1 [Compound 28, (3S)-N-[[2-[(2R,6S)-2,6-dimethyl-4-morpholinyl]-5-(2,6-dimethyl-4-pyridinyl)-4-thiazolyl]methyl]tetrahydro-3-furancarboxamide]
	593	Cc1cc(-c2sc(N3C[C@@H](C)O[C@@H](C)C3)nc2CNC(=O)c2sc(C)nc2C)cc(C)n1 [Compound 29, N-[[2-[(2R,6S)-2,6-dimethyl-4-morpholinyl]-5-(2,6-dimethyl-4-pyridinyl)-4-thiazolyl]methyl]-2,4-dimethyl-5-thiazolecarboxamide]
513	551	COc1ccc(C(=O)NCc2nc(N3C[C@@H](C)O[C@@H](C)C3)sc2-c2cc(C)nc(C)c2)cc1 [Compound 30, N-[[2-[(2R,6S)-2,6-dimethyl-4-morpholinyl]-5-(2,6-dimethyl-4-pyridinyl)-4-thiazolyl]methyl]-4-methoxy-benzamide]
	495	Cc1cc(-c2sc(N3C[C@@H](C)O[C@@H](C)C3)nc2CNC(=O)c2coc(C)n2)cc(C)n1 [Compound 31, N-[[2-[(2R,6S)-2,6-dimethyl-4-morpholinyl]-5-(2,6-dimethyl-4-pyridinyl)-4-thiazolyl]methyl]-2-methyl-4-oxazolecarboxamide]
275	519	Cc1cc(-c2sc(N3C[C@@H](C)O[C@@H](C)C3)nc2CNC(=O)c2ccc(F)c(C(F)(F)F)c2)cc(C)n1 [Compound 33, N-[[2-[(2R,6S)-2,6-dimethyl-4-morpholinyl]-5-(2,6-dimethyl-4-pyridinyl)-4-thiazolyl]methyl]-4-fluoro-3-(trifluoromethyl)-benzamide]
	237	Cc1cc(-c2sc(N3C[C@@H](C)O[C@@H](C)C3)nc2CNC(=O)C2(C)CC2)cc(C)n1 [Compound 34, N-[[2-[(2R,6S)-2,6-dimethyl-4-morpholinyl]-5-(2,6-dimethyl-4-pyridinyl)-4-thiazolyl]methyl]-1-methyl-cyclopropanecarboxamide]
	247	Cc1cc(-c2sc(N3C[C@@H](C)O[C@@H](C)C3)nc2CNC(=O)C(C)(C)C)cc(C)n1 [Compound 47, N-[[2-[(2R,6S)-2,6-dimethyl-4-morpholinyl]-5-(2,6-dimethyl-4-pyridinyl)-4-thiazolyl]methyl]-2,2-dimethyl-propanamide]
60.3	960	Cc1cc(-c2sc(N3C[C@@H](C)O[C@@H](C)C3)nc2CNC(=O)CCC(C)C)cc(C)n1 [Compound 51, N-[[2-[(2R,6S)-2,6-dimethyl-4-morpholinyl]-5-(2,6-dimethyl-4-pyridinyl)-4-thiazolyl]methyl]-4-methyl-pentanamide]
6170	582	Cc1cc(-c2sc(N3C[C@@H](C)O[C@@H](C)C3)nc2CNC(=O)[C@@H]2CCCN2C)cc(C)n1 [Compound 52, (2S)-N-[[2-[(2R,6S)-2,6-dimethyl-4-morpholinyl]-5-(2,6-dimethyl-4-pyridinyl)-4-thiazolyl]methyl]-1-methyl-2-pyrrolidinecarboxamide]
2820		COCCC(=O)NCc1nc(N2C[C@@H](C)O[C@@H](C)C2)sc1-c1cc(C)nc(C)c1 [Compound 53, N-[[2-[(2R,6S)-2,6-dimethyl-4-morpholinyl]-5-(2,6-dimethyl-4-pyridinyl)-4-thiazolyl]methyl]-3-methoxy-propanamide]
646		Cc1cc(-c2sc(N3C[C@@H](C)O[C@@H](C)C3)nc2CNC(=O)c2cc(C(C)(C)C)nn2C)cc(C)n1 [Compound 54, 3-(1,1-dimethylethyl)-N-[[2-[(2R,6S)-2,6-dimethyl-4-morpholinyl]-5-(2,6-dimethyl-4-pyridinyl)-4-thiazolyl]methyl]-1-methyl-1H-pyrazole-5-carboxamide]
	495	CC(=O)NCc1nc(N2C[C@@H](C)O[C@@H](C)C2)sc1-c1cc(C)nc(C)c1 [Compound 60, N-[[2-[(2R,6S)-2,6-dimethyl-4-morpholinyl]-5-(2,6-dimethyl-4-pyridinyl)-4-thiazolyl]methyl]-acetamide]
4270	633	Cc1cc(-c2sc(N3CCOCC3)nc2CNC(=O)c2conc2C)cc(C)n1 [Compound 62, N-[[5-(2,6-dimethyl-4-pyridinyl)-2-(4-morpholinyl)-4-thiazolyl]methyl]-3-methyl-4-isoxazolecarboxamide]
